Source: article PMC5000617, “Antiproliferative and Pro-Apoptotic Effect of Novel Nitro-Substituted Hydroxynaphthanilides on Human Cancer Cell Lines” (International Journal of Molecular Sciences, 2016)

Tests used:
[1] = test system: THP-1 cells; test: Flow cytometric cell cycle analysis (PI), THP-1; format: cell-based, human
Procedure: (§1) In order to determine at which stage of the cell cycle these compounds induce cell growth inhibition, flow cytometric analyses of cell cycle profiles in THP-1 and MCF-7 cell lines were performed. […] Therefore, THP-1 and MCF-7 cells were treated for 24 h with the compounds at concentrations of 2.5, 5, and 10 μM, respectively. In general, we detected a qualitatively similar effect on the distribution of cells in cell cycle phases following the treatment with compounds 2 and 6 in both leukaemia and breast carcinoma cells. […] This was in concert with a simultaneous decrease in the number of cells observed in the S phase compared to the drug-free control, while the percentage of cells in the G2/M phase remained unchanged.
(§2) THP-1 and sub-confluent MCF-7 cells were treated and subsequently incubated with indicated concentrations of compounds 2 and 6 for 24 h. After the incubation, cells were washed twice in PBS (pH 7.4), fixed in 70% ethanol and stored at −20 °C overnight. Fixed cells were collected by centrifugation, and supernatant was discarded. The cell pellet was washed twice with PBS and incubated with RNaseA (0.02 mg/mL) and 0.05% (v/v) Triton X-100 in PBS for 30 min at 37 °C. After the nuclei staining with propidium iodide (PI) (0.04 mg/mL), the cell cycle distribution was analysed using a flow cytometer Cell Lab Quanta SC (Beckman Coulter, Brea, CA, USA). The quantification of cell cycle distribution was carried out using software MultiCycle AV (Phoenix Flow System, San Diego, CA, USA). A total number of 2 × 10^4 cells was analysed per sample.

[2] = test system: caspase 9; test: Western blot of caspase 9 in THP-1 cells; format: cell-based, human; settings: THP-1, 24 h, most pronounced at 10 μM
Procedure: (§3) Most of the apoptotic signalling pathways are controlled by caspases that belong to a group of cysteine proteases. To assess whether compound 2 affects these signalling cascades and which pathway is activated (intrinsic or extrinsic), the activities of caspase 3, caspase 9, and caspase 8 were evaluated using Western blot analysis.
(§4) For Western blotting, cells were washed with PBS and lysed in lysis buffer (100 mM Tris-HCl, pH = 6.8; 20% glycerol; 1% SDS) containing protease and phosphatase inhibitor cocktails. Protein concentration was measured using Roti®-Quant universal (Carl Roth, Karsruhe, Germany) according to the manufacturer’s instructions. Cell lysates were supplemented with bromophenol blue (final concentration 0.01% (w/v)) and β-mercaptoethanol (final concentration 1% (v/v)) prior to being heated for 5 min at 95 °C. Equal amounts of protein (10 μg) were loaded into a 12% polyacrylamide gel, separated by SDS-polyacrylamide gel electrophoresis and subsequently electrotransferred onto nitrocellulose membranes. Reversible Ponceau S. staining was performed to assess equal sample loading. […] The intensity of bands was semi-quantitatively analysed using the ImageJ software (National Institute of Mental Health, Bethesda, MD, USA).

[3] = test system: MCF-7 cells; test: Flow cytometric cell cycle analysis (PI), MCF-7; format: cell-based, human; settings: MCF-7, 24 h
Procedure: as §1, §2

[4] = test system: MCF-7 cells; test: WST-1 cell proliferation assay, MCF-7; format: cell-based, human
Procedure: Initially, we examined the effect of six nitro-substituted hydroxynaphthanilides on the proliferation of human leukaemia and breast carcinoma cell lines, using Water Soluble Tetrazolium Salts-1 (WST-1) assay. For such analyses, THP-1 and MCF-7 cells were treated with the compounds at concentrations ranging from 0.5 to 20 μM for 24 h. […] The inhibitory effect of 2 and 6 was statistically significant (p < 0.001) starting from the concentration of 2.5 and 5 μM in THP-1 and MCF-7 cells, respectively. From the concentration-response curves, the IC50 values were determined.
(§5) THP-1 human monocytic leukemia cell line, MCF-7 human breast adenocarcinoma cells and 3T3-L1 mouse embryonic fibroblast were purchased from the European Collection of Cell Cultures (ECACC, Salisbury, UK). Cells were routinely tested for the absence of mycoplasma (Hoechst 33258 staining method). THP-1 cells were maintained in RPMI 1640 culture medium containing 2 mM L-glutamine; MCF-7 and 3T3-L1 cells were cultured in DMEM medium. All of the culture media were supplemented with 10% heat-inactivated FBS and antibiotics (100 U/mL penicillin and 100 μg/mL streptomycin). Cells were maintained at 37 °C in a humidified atmosphere containing 5% CO2.
(§6) Cell proliferation was evaluated using Cell Proliferation Reagent WST-1 (2-(4-iodophenyl)-3-(4-nitrophenyl)-5-(2,4-disulfophenyl)-2H-tetrazolium) (Roche Diagnostics, Mannheim, Germany) according to the manufacturer´s instructions. THP-1 (5 × 10^4 cells/100 μL culture medium per well), MCF-7 cells (1 × 10^4 cells/100 μL per well), and 3T3-L1 (2.5 × 10^3 cells/100 μL per well) were cultured in 96-well plates in triplicate. The measurement was performed using Synergy 2 Multi-Mode Microplate Reader (BioTek, Winooski, VT, USA) after 24 h incubation of cells with tested compounds dissolved in DMSO and subsequently in RPMI 1640 to final concentration ranging 0.5–20 μM in the assays. Cell viability was assessed by dye exclusion test. THP-1 (2 × 10^5 cells/mL per well) and MCF-7 cells (8 × 10^4 cells/mL per well) were incubated in 24-well plates with the indicated concentrations of compounds for 24 h. The number of viable cells was determined using hemocytometer after their staining with a solution of erythrosin B (0.1% erythrosin B (w/v) in PBS). The assays were conducted in triplicate. The IC50 and LC50 values were calculated from fitted concentration-response curves using GraphPad Prism 5.00 software (GraphPad Software, San Diego, CA, USA).

[5] = test system: 3T3-L1 cells; test: WST-1 cell proliferation assay, 3T3-L1 non-tumour cells; format: cell-based, mouse
Procedure: as §5, §6

[6] = test system: THP-1 cells; test: Erythrosin B dye exclusion viability test, THP-1; format: cell-based
Procedure: Subsequently, for the comparison of the antiproliferative and cytotoxic effects we assessed the cell viability after 24 h treatment with compounds 1–6 in both tumour cell lines using the dye exclusion test.
as §5, §6

[7] = test system: cyclin E1; test: Western blot of cyclin E1 in THP-1 cells; format: cell-based, human; settings: THP-1, 24 h
Procedure: (§7) Additionally, the cell cycle analysis allows determining the presence of a subdiploid cell population as a characteristic marker of cells with fractional DNA content. A significant increase (p < 0.001) of the sub-G1 peak was found only after the treatment with 5 µM of compound 2 in THP-1 cells, where an approximately eight-fold increase was observed compared to the drug-free control (Figure 4).
For Western blotting, cells were washed with PBS and lysed in lysis buffer (100 mM Tris-HCl, pH = 6.8; 20% glycerol; 1% SDS) containing protease and phosphatase inhibitor cocktails. Protein concentration was measured using Roti®-Quant universal (Carl Roth, Karsruhe, Germany) according to the manufacturer’s instructions. Cell lysates were supplemented with bromophenol blue (final concentration 0.01% (w/v)) and β-mercaptoethanol (final concentration 1% (v/v)) prior to being heated for 5 min at 95 °C. Equal amounts of protein (10 μg) were loaded into a 12% polyacrylamide gel, separated by SDS-polyacrylamide gel electrophoresis and subsequently electrotransferred onto nitrocellulose membranes. Reversible Ponceau S. staining was performed to assess equal sample loading. Then, the membranes were blocked with 5% non-fat dry milk in TBST (10 mM Tris-HCl pH = 7.5, 150 mM NaCl, 0.1% (v/v) Tween-20) and appropriate primary and secondary antibodies were used for immunodetection. The proteins were visualized by ECL Plus reagent according to the manufacturer’s instructions. The intensity of bands was semi-quantitatively analysed using the ImageJ software (National Institute of Mental Health, Bethesda, MD, USA).

[8] = test system: cyclin B1; test: Western blot of cyclin B1 in MCF-7 cells; format: cell-based, human; settings: MCF-7, 24 h
Procedure: as §7, §4

[9] = test system: caspase 8; test: Western blot of caspase 8 in THP-1 cells; format: cell-based, human; settings: THP-1, 24 h
Procedure: as §3, §4

In the case of `O=C(Nc1cccc([N+](=O)[O-])c1)c1cc2ccccc2cc1O` [Compound 2, 3-hydroxy-N-(3-nitrophenyl)naphthalene-2-carboxamide], the “increase of sub-G1 peak compared to drug-free control” value ([1]; THP-1, 5 µM, 24 h, p < 0.001) is reported as “approximately eight-fold”, the “distribution of cells in cell cycle phases” value ([1]; THP-1, 24 h) is reported as “induced accumulation of cells in G1 phase” and the “cleaved caspase 9 levels” value [2] is reported as “significant increase of cleaved caspase 9 levels”. The “distribution of cells in cell cycle phases” value [3] was “induced accumulation of cells in G1 phase”, the “sub-G1 / sub-diploid population” value [3] was “did not induce any elevation of the sub-G1 peak” and the IC50 ([4]; Homo sapiens, MCF7, WST-1, 24 h, 0.5-20 μM, mean ± SD) was 4.61 ± 0.068 µM. For the same compound, the “effect on cell proliferation” value ([4]; MCF-7, 0.5-20 μM, 24 h) was “inhibit cell growth in both cell lines in a dose-dependent manner”, the “concentration from which the inhibitory effect on proliferation was statistically significant (p < 0.001)” value ([4]; MCF-7, 24 h) was 5 µM and the “effect on cell proliferation” value ([5]; 3T3-L1, 24 h) was “did not decrease cell growth at any of concentrations used”. The IC50 ([5]; Mus musculus, 3T3-L1, WST-1, 24 h, non-tumour cells, mean ± SD) was greater than 20 µM, the “LC50 compared to IC50” value [6] was 2–3 fold and the “expression of cyclin E1” value [7] was “dose-dependent decrease in expression of cyclin E1”. The “levels of cyclin E1 low molecular weight (LMW E1) isoform” value [7] was “more pronounced reduction of LMW E1 isoform levels”, the “total protein levels of cyclin B1” value [8] was “total protein levels of cyclin B1 were not changed” and the “level of active caspase 8” value [9] was “level of active caspase 8 was not altered”.
